Data on one compound can be found in article PMC5413048, “Palmitic acid is a toll-like receptor 4 ligand that induces human dendritic cell secretion of IL-1β” (PLoS ONE, 2017).

Structures are written as SMILES. pKd: −log10 of the molar value.

This assay addresses T1, MD-2 (TLR4/MD-2 complex) (Homo sapiens, UniProt Q9Y6Y9).
T1 construct: gene LY96; MD2 Glu17—Asn160 + 10-His Tag, co-expressed with TLR4 ectodomain Glu24—Lys631 + 10-His Tag; with TLR4 (O00206), ectodomain Glu24—Lys631
Nature of the assay: isothermal titration calorimetry of PA into recombinant human TLR4/MD-2 ([…]°C). The format is binding.

What is called pKd is −log10 of the Kd, conventionally taken in molar units.

T1 sequence (Q9Y6Y9 17-160): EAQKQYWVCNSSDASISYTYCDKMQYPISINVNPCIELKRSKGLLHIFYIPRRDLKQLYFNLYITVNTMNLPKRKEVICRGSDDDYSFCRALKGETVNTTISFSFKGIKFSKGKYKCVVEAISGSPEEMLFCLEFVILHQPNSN
T1 sequence (O00206 24-631 partner): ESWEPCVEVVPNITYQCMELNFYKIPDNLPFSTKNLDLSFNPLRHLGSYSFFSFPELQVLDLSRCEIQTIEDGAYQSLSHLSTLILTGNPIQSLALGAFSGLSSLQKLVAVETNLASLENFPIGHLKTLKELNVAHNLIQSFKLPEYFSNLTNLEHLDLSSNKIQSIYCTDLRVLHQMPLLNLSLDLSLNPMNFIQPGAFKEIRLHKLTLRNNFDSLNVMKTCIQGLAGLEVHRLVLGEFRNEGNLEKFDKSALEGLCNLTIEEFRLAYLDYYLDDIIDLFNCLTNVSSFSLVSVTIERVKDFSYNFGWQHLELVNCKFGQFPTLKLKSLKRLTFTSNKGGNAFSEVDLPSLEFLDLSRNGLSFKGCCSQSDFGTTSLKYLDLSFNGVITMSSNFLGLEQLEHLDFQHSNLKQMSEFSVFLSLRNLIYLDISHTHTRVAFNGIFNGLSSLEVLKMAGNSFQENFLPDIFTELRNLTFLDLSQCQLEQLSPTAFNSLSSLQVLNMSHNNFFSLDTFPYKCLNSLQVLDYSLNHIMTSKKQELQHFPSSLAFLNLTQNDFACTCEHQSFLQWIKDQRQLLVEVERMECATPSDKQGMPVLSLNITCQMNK

Turning to `CCCCCCCCCCCCCCCC(=O)O` [PA, palmitic acid], the pKd is 5.64.
